According to patent US20220105147A1, “CROTON LECHLERI COMPOSITIONS FOR USE IN THE TOPICAL TREATMENT OF ACUTE BACTERIAL SKIN OR SKIN STRUCTURE INFECTION” (priority 2019, published 2022):
≈ marks a conversion by molar mass, not a printed value.

Assays:
[1] = tested on: MSSA and MRSA strains (Mupirocin-resistant and Mupirocin-susceptible); experiment: In vitro MIC, panel of MSSA and MRSA strains; type: cell-based, Staphylococcus aureus; conditions: for MIC: Staphylococcus aureus
From the text: (§1) Measures included the minimum inhibitory concentration (MIC) which is the lowest concentration of AB-101 that prevents visible growth of the bacterium or pathogen, and minimum bactericidal concentration (MBC) which is the lowest concentration of an antibacterial agent required to kill a bacterium.

[2] = tested on: Enterococcus faecalis (ATCC 29212); experiment: Agar Well Diffusion Assay (K-B disks); type: cell-based; conditions: EFAECL; K-B disk, 25 uL, dilutions in DMSO; width of zone; one value per test date
Procedure: An Agar Well Diffusion Assay pilot evaluation of AB-101 BRM was conducted to seek an initial signal of the activity of AB-101 BRM against various bacteria. AB-101 BRM was tested against the following bacterial species: • Streptococcus pneumoniae (ATCC 49619) (SPNEU) Gram (+) • Streptococcus pyogenes (clinical isolate) (GABHS) Gram (+) • Enterococcus faecalis (ATCC 29212) (EFAECL) Gram (+) • Coagulase-negative Staphylococcus (clinical isolate) (CNS) Gram (+) • Escherichia coli (ATCC 25922) (EC) Gram (−) • Pseudomonas aeruginosa (ATCC 27853) (PAER) Gram (−) • Klebsiella pneumoniae (ATCC 700603) (KPNEU) Gram (−) • Staphylococcus aureus (ATCC […]) (SAUR) Gram (+) • Methicillin-resistant Staphylococcus aureus (ATCC 49476) (MRSA) Gram (+)
Isolates were subcultured the day before the Agar Well Diffusion Assay was performed. On the day of the assay, a bacterial suspension (0.08-0.12 MacFarland units) of each bacteria isolate was made in Trypticase Soy Broth (TSB), and these suspensions were used to plate a lawn of bacterial organisms on Mueller-Hinton agar or Mueller-Hinton sheep's blood agar. A control antibiotic Kirby-Bauer (K-B) disk plus K-B disks containing 25 uL of AB-101 dilutions were placed on the plates, and the plates were incubated overnight. The next day, the width of the zone of growth inhibition surrounding each K-B disk was recorded (in mm). […]

[3] = tested on: MSSA and MRSA strains (Mupirocin-resistant and Mupirocin-susceptible); experiment: In vitro MBC, panel of MSSA and MRSA strains; type: cell-based, Staphylococcus aureus; conditions: purified extract of taspine
From the text: as §1

[4] = ATCC 29213 / MRSA / MSSA, strain ATCC 29213, QC control

C/C(=C\C(=O)OCCCCCCCCC(=O)O)C[C@@H]1OC[C@H](C[C@@H]2O[C@H]2[C@@H](C)[C@H](C)O)[C@@H](O)[C@H]1O [Mupirocin]
MIC [1, 4]: 0.25 to 0.5 mg/L (≈ 0.499 to 0.999 µM)
MIC ([1]; strain 1674606, MupirocinR, MSSA): > 256 mg/L
MIC ([1]; strain 1674607, MupirocinR, MRSA): > 256 mg/L
MIC ([1]; strain CDC 227, MupirocinS, MRSA): 0.25 to 0.5 mg/L (≈ 0.499 to 0.999 µM)
MIC ([1]; strain CDC 462, MupirocinS, MSSA): ≤ 0.25 mg/L
MIC ([1]; strain CDC 464, MupirocinS, MSSA): ≤ 0.25 mg/L
MIC ([1]; strain CDC 484, MupirocinS, MSSA): ≤ 0.25 mg/L
MIC ([1]; strain CDC 485, MupirocinS, MSSA): ≤ 0.25 mg/L

CC1(C)S[C@@H]2[C@H](NC(=O)[C@H](N)c3ccccc3)C(=O)N2[C@H]1C(=O)O [AMP, Ampicillin]
Zone of Inhibition (MM) [2]: AMP 8 MM

COc1cccc(OC)c1C(=O)N[C@@H]1C(=O)N2[C@@H]1SC(C)(C)[C@@H]2C(=O)O [Methicillin]
MIC [1, 4]: 1 to 2 mg/L (≈ 2.63 to 5.26 µM)

COc1ccc2c(=O)oc3c(OC)cc(CCN(C)C)c4c(=O)oc1c2c34 [Taspine, taspine]
activity against MSSA and MRSA (MBC) [3]: does not have activity
activity against MSSA and MRSA (MIC) ([1]; highest concentration tested 50% relative to AB-101 = 10 μg/mL): does not have activity

Gentamicin [GM]
Zone of Inhibition (MM) [2]: GM 5 MM
